Patent publication US12570641B2, “Solid forms of a CDK4 inhibitor” (Pfizer Inc., priority 2020, dated 2026)

Experiment: Competitive slurry experiments in 2-propanol/1% water
Assay type: physicochemical
Conditions: based on the competition slurry experiments
Experimental: Competitive slurry experiments were performed between Form 1 and Form 2 (Entry 1), and between Form 6 and Form 2 (Entry 2), in 2-propanol/1% water. Entry 1: […] The solids were collected with vacuum filtration and analyzed with PXRD. PXRD data was consistent with PF-07220060 monohydrate (Form 2). Entry 2: […] The solids were collected with vacuum filtration and analyzed with PXRD. PXRD data was consistent with PF-07220060 monohydrate (Form 2).

relative humidity above which the form is thermodynamically stable: above 15 % RH
SMILES: CC(C)n1c(C(C)(C)O)nc2c(F)cc(-c3nc(N[C@@H]4CCOC[C@H]4O)ncc3Cl)cc21 [Form 2, 1,5-anhydro-3-({5-chloro-4-[4-fluoro-2-(2-hydroxypropan-2-yl)-1-(propan-2-yl)-1H-benzimidazol-6-yl]pyrimidin-2-yl}amino)-2,3-dideoxy-D-threo-pentitol monohydrate]
